This passage reports IC50 results from patent publication US9809573B2, “Substituted pyridine derivatives useful as GSK-3 inhibitors” (priority 2013, dated 2017).

Read-outs that look alike come from different tables or passages of the source.

The target in one test is GSK3α (Homo sapiens, UniProt P49840). The test is described as follows: biochemical. The method in brief:
(§1)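 Reaction: 20 h, room temperature. Quench: 35 mM EDTA. Detection: substrate/product separation by chip electrophoresis. Analysis: eleven concentrations, non-linear regression to IC50.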

For another test, the target named is GSK3β (Homo sapiens, UniProt P49841). Briefly: GSK3β kinase assay (Caliper LabChip3000, fluoresceinated peptide substrate). Format: biochemical. The method in brief: as §1
A further test deals with pTau. Briefly: pTau assay (method not described). The format is cell-based.
The mark [1] stands for this setting: second value of the cell, 250 pM enzyme, 20 uM ATP, 20 hours at room temperature, read-out: GSK3β/α (nM): GSK3α IC50.
Where [2] appears, read: first value of the cell, 250 pM enzyme, 20 uM ATP, 20 hours at room temperature, read-out: GSK3β/α (nM): GSK3β IC50.

Chain of GSK3α (P49840 whole entry, species assumed): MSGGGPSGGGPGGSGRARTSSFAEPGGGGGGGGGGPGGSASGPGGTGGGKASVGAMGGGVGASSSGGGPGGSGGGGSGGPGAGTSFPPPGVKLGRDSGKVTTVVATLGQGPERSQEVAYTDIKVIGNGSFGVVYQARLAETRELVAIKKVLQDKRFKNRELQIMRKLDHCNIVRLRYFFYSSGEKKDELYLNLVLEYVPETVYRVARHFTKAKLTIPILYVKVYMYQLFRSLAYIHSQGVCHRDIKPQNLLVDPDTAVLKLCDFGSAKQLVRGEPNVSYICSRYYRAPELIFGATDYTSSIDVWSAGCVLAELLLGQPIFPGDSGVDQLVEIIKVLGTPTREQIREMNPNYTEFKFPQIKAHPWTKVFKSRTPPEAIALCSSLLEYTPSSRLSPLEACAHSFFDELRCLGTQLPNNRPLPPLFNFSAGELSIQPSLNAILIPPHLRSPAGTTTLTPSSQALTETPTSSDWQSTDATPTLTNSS
Chain of GSK3β (P49841 whole entry, species assumed): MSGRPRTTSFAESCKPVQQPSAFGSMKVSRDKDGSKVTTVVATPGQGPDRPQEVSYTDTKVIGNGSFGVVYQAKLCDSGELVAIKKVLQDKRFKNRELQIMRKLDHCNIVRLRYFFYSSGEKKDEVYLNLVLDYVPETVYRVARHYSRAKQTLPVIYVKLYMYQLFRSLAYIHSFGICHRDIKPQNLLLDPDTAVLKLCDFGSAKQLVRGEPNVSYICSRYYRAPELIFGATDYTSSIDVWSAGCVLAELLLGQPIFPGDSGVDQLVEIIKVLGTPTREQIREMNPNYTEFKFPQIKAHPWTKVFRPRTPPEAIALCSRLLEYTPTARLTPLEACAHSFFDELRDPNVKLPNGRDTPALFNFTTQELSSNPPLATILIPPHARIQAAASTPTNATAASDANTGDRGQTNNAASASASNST

With `CC(C)(C)C(=O)Nc1cc(C(=O)Nc2cncc(-c3cccc(F)c3F)c2)ccn1` [Example 209, N-(5-(2,3-difluorophenyl)pyridin-3-yl)-2-pivalamidoisonicotinamide], the IC50 at GSK3α (setting [1]) was determined as 14 nM; against GSK3β it was 24 nM; with pTau (read-out: pTau), 2100 nM.

In the case of `O=C(Nc1cnccc1-c1ccccc1)c1ccnc(NC(=O)[C@H]2C[C@H](O)C2)c1` [Example 219, 2-((1,3-Trans)-3-hydroxycyclobutanecarboxamido)-N-(4-phenylpyridin-3-yl)isonicotinamide], the IC50 on GSK3α (setting [1]) came out at 6.4 nM; at GSK3β (setting [2]) it was 17 nM; with pTau (read-out: pTau), 450 nM.

Regarding `Cc1ccc(NC(=O)c2ccnc(NC(=O)C3CC3)c2)cn1` [Example 11, 2-(Cyclopropanecarboxamido)-N-(6-methylpyridin-3-yl)isonicotinamide], the IC50 worked out at 15 nM at GSK3α (setting [1]), 30 nM on GSK3β (setting [2]) and 2200 nM in the test with pTau (read-out: pTau).

Regarding `CC(C)C(=O)Nc1cc(C(=O)Nc2cncc(-c3ccccc3F)n2)ccn1` [Example 207, N-(6-(2-fluorophenyl)pyrazin-2-yl)-2-isobutyramidoisonicotinamide], the IC50 at GSK3α (setting [1]) is 1.1 nM; at GSK3β (setting [2]) it was 2.5 nM; with pTau (read-out: pTau), 160 nM.

Consider `CCC1(c2cc(Cl)ncc2NC(=O)c2ccnc(NC(=O)C(C)C)c2)OCCO1` [Example 191, N-(6-chloro-4-(2-ethyl-1,3-dioxolan-2-yl)pyridin-3-yl)-2-isobutyramidoisonicotinamide], for which the IC50 on GSK3α (setting [1]) was 0.12 nM; at GSK3β (setting [2]) it was 0.08 nM; in the test with pTau (read-out: pTau) it was 12 nM.

As to `O=C(Nc1cncc(-c2cccc(N3CCOCC3)c2)c1)c1ccnc(NC(=O)C2CC2)c1` [Example 156, 2-(cyclopropanecarboxamido)-N-(5-(3-morpholinophenyl)pyridin-3-yl)isonicotinamide], the IC50 at GSK3α (setting [1]) was determined as 3.6 nM; on GSK3β (setting [2]) it was 11 nM; with pTau (read-out: pTau) it was 420 nM.

As to `CC(C)C(=O)Nc1cc(C(=O)Nc2cnccc2-c2ccc(Cl)cc2)ccn1` [Example 186, N-(4-(4-chlorophenyl)pyridin-3-yl)-2-isobutyramidoisonicotinamide], the figures for the IC50 at GSK3α (setting [1]), at GSK3β and in the test on pTau (read-out: pTau) were 6.5 nM, 20 nM and 360 nM, respectively.

Consider `C[C@@H]1CN(c2ccncc2NC(=O)c2ccnc(NC(=O)C3CC3)c2)CCO1` (single isomer, unassigned) [Example 77], for which the IC50 against GSK3α was found to be 2.7 nM; against GSK3β, 8.8 nM; in the test with pTau (read-out: pTau (nM)) it was 220 nM.

As for `O=C(Nc1cncc(N2CCCCC2)c1)c1ccnc(NC(=O)C2CC2)c1` [Example 108, 2-(cyclopropanecarboxamido)-N-(5-(piperidin-1-yl)pyridin-3-yl)isonicotinamide], the IC50 at GSK3α (setting [1]) was found to be 23 nM; against GSK3β, 130 nM; with pTau (read-out: pTau), 5400 nM.

On to `O=C(Nc1ccc(-c2ccccc2)nc1)c1ccnc(NC(=O)C2CC2)c1` [Example 10, 2-(Cyclopropanecarboxamido)-N-(6-phenylpyridin-3-yl)isonicotinamide], for which the IC50 came out at 64 nM at GSK3α (setting [1]), 16 nM at GSK3β (setting [2]) and 1800 nM with pTau (read-out: pTau).

Turning to `O=C(Nc1cnccc1-c1ccc(Br)cc1)c1ccnc(NC(=O)C2CC2)c1` [Example 168, N-(4-(4-bromophenyl)pyridin-3-yl)-2-(cyclopropanecarboxamido)isonicotinamide], the values for the IC50 at GSK3α (setting [1]), on GSK3β (setting [2]) and in the test on pTau (read-out: pTau) were 2.2 nM, 6.8 nM and 240 nM, respectively.

Consider `O=C(Nc1cncc(-c2ccc(OC(F)(F)F)cc2)c1)c1ccnc(NC(=O)C2CC2)c1` [Example 120, 2-(cyclopropanecarboxamido)-N-(5-(4-(trifluoromethoxy)phenyl)pyridin-3-yl)isonicotinamide], for which the IC50 at GSK3α (setting [1]) is 8 nM; on GSK3β (setting [2]), 11 nM; in the test on pTau (read-out: pTau), 5400 nM.

Turning to `O=C(Nc1cncnc1)c1ccnc(NC(=O)C2CC2)c1` [Example 178, 2-(Cyclopropanecarboxamido)-N-(pyrimidin-5-yl)isonicotinamide], the results for the IC50 on GSK3α (setting [1]), on GSK3β (setting [2]) and in the test on pTau (read-out: pTau) were 12 nM, 14 nM and 1200 nM, respectively.

Regarding `O=C(Nc1cncc2ccccc12)c1ccnc(NC(=O)C2CCCC2)c1` [Example 228, 2-(Cyclopentanecarboxamido)-N-(isoquinolin-4-yl)isonicotinamide], the IC50 was determined as 1.1 nM on GSK3α (setting [1]), 1.6 nM at GSK3β (setting [2]) and 130 nM in the test with pTau (read-out: pTau).

Turning to `C[C@H]1CN(c2ccncc2NC(=O)c2ccnc(NC(=O)C3CC3)c2)CCO1` (single isomer, unassigned) [Example 78], the IC50 against GSK3α came out at 0.35 nM; against GSK3β, 0.99 nM; with pTau (read-out: pTau (nM)), 18 nM.

For `O=C(Nc1cnccc1-c1ccc(C(F)(F)F)cc1F)c1ccnc(NC(=O)C2CC2)c1` [Example 82, 2-(Cyclopropanecarboxamido)-N-(4-(2-fluoro-4-(trifluoromethyl)phenyl)pyridine-3-yl)isonicotinamide], the figures for the IC50 at GSK3α (setting [1]), at GSK3β (setting [2]) and in the test on pTau (read-out: pTau) were 4 nM, 9.6 nM and 200 nM, respectively.

For `CC(C)C(=O)Nc1cc(C(=O)Nc2cncc(C(O)c3ccccc3)c2)ccn1` (stereo not drawn) [Example 197, N-(5-(hydroxy(phenyl)methyl)pyridin-3-yl)-2-isobutyramidoisonicotinamide], the results for the IC50 on GSK3α (setting [1]), at GSK3β (setting [2]) and in the test with pTau (read-out: pTau) were 12 nM, 19 nM and 320 nM, respectively.

For `COc1ccc(-c2ccncc2NC(=O)c2ccnc(NC(=O)C3CC3)c2)c(F)c1` [Example 81, 2-(Cyclopropanecarboxamido)-N-(4-(2-fluoro-4-methoxyphenyl)pyridin-3-yl)isonicotinamide], the IC50 on GSK3α (setting [1]) is 0.58 nM; on GSK3β (setting [2]) it was 1.3 nM; in the test on pTau (read-out: pTau), 31 nM.

With `Cn1c(-c2ccncc2NC(=O)c2ccnc(NC(=O)C3CC3)c2)cc2ccccc21` [Example 96, 2-(Cyclopropanecarboxamido)-N-(4-(1-methyl-1H-indol-2-yl)pyridin-3-yl)isonicotinamide], the IC50 at GSK3α (setting [1]) worked out at 1.7 nM; on GSK3β (setting [2]), 4.1 nM; with pTau (read-out: pTau) it was 66 nM.

With `CC(C)n1cc(NC(=O)c2ccnc(NC(=O)C3CC3)c2)cn1` [Example 171, 2-(cyclopropanecarboxamido)-N-(1-isopropyl-1H-pyrazol-4-yl)isonicotinamide], the values for the IC50 at GSK3α (setting [1]), on GSK3β (setting [2]) and in the test on pTau (read-out: pTau) were 170 nM, 370 nM and 4000 nM, respectively.

In the case of `CC(C)C(=O)Nc1cc(C(=O)Nc2cncc(-c3cc(F)ccc3F)c2)ccn1` [Example 192, N-(5-(2,5-difluorophenyl)pyridin-3-yl)-2-isobutyramidoisonicotinamide], the values for the IC50 on GSK3α (setting [1]), on GSK3β and in the test on pTau (read-out: pTau) were 1.4 nM, 4.6 nM and 94 nM, respectively.

Turning to `CC1(C)COCCN1c1ccncc1NC(=O)c1ccnc(NC(=O)C2CC2)c1` [Example 90, 2-(Cyclopropanecarboxamido)-N-(4-(3,3-dimethylmorpholino)pyridin-3-yl)isonicotinamide], the figures for the IC50 at GSK3α (setting [1]), against GSK3β and with pTau (read-out: pTau) were 0.1 nM, 0.15 nM and 0.4 nM, respectively.

As for `CC(C)C(=O)Nc1cc(C(=O)Nc2cnc(F)cc2OCC(F)F)ccn1` [Example 187, N-(4-(2,2-difluoroethoxy)-6-fluoropyridin-3-yl)-2-isobutyramidoisonicotinamide], the IC50 on GSK3α (setting [1]) came to 1.2 nM; at GSK3β (setting [2]), 2.7 nM; in the test with pTau (read-out: pTau), 210 nM.

In the case of `Cn1ccc(-c2cncc(NC(=O)c3ccnc(NC(=O)C4CC4)c3)c2)c1` [Example 151, 2-(cyclopropanecarboxamido)-N-(5-(1-methyl-1H-pyrrol-3-yl)pyridin-3-yl)isonicotinamide], the IC50 on GSK3α (setting [1]) stood at 3.1 nM; on GSK3β (setting [2]), 8.8 nM; with pTau (read-out: pTau) it was 240 nM.

Regarding `CN(C)Cc1ccccc1-c1cncc(NC(=O)c2ccnc(NC(=O)C3CC3)c2)c1` [Example 145, 2-(cyclopropanecarboxamido)-N-(5-(2-((dimethylamino)methyl)phenyl)pyridin-3-yl)isonicotinamide], the IC50 at GSK3α (setting [1]) was found to be 170 nM; on GSK3β (setting [2]), 780 nM; with pTau (read-out: pTau) it was 1400 nM.

`CC1CC1C(=O)Nc1cc(C(=O)Nc2cnccc2-c2ccccc2)ccn1` (stereo not drawn) [Example 100, 2-(2-Methylcyclopropanecarboxamido)-N-(4-phenylpyridin-3-yl)isonicotinamide]: the values for the IC50 on GSK3α (setting [1]), at GSK3β (setting [2]) and with pTau (read-out: pTau) were 7.5 nM, 26 nM and 350 nM, respectively.

As for `C=C(c1ccccc1)c1ccncc1NC(=O)c1ccnc(NC(=O)C(C)C)c1` [Example 200, 2-Isobutyramido-N-(4-(1-phenylvinyl)pyridine-3-yl)isonicotinamide], the figures for the IC50 at GSK3α (setting [1]), at GSK3β (setting [2]) and in the test with pTau (read-out: pTau) were 4.7 nM, 6.1 nM and 510 nM, respectively.

On to `O=C(Nc1cncc(-n2cccn2)c1)c1ccnc(NC(=O)C2CC2)c1` [Example 118, N-(5-(1H-pyrazol-1-yl)pyridin-3-yl)-2-(cyclopropanecarboxamido)isonicotinamide], for which the IC50 was found to be 0.74 nM on GSK3α (setting [1]), 1.5 nM at GSK3β (setting [2]) and 330 nM in the test with pTau (read-out: pTau).

As for `CC(=O)Nc1ccc(NC(=O)c2ccnc(NC(=O)C3CC3)c2)cn1` [Example 4, N-(6-Acetamidopyridin-3-yl)-2-(cyclopropanecarboxamido)isonicotinamide], the IC50 on GSK3α (setting [1]) came out at 180 nM; at GSK3β (setting [2]), 370 nM; with pTau (read-out: pTau) it was 7200 nM.

For the compound `O=C(Nc1cncc(-c2cccc(OC(F)F)c2)c1)c1ccnc(NC(=O)C2CC2)c1` [Example 157, 2-(cyclopropanecarboxamido)-N-(5-(3-(difluoromethoxy)phenyl)pyridin-3-yl)isonicotinamide], the IC50 came out at 3.3 nM at GSK3α (setting [1]), 7.9 nM at GSK3β (setting [2]) and 670 nM in the test with pTau (read-out: pTau).
